From ChEMBL document CHEMBL4627246, “Pyroglutamide-Based P2X7 Receptor Antagonists Targeting Inflammatory Bowel Disease” (J Med Chem, 2020)

Assays:
Format in all cases: cell-based
HOP-62 = test: Cytotoxicity against human HOP62 cells assessed as effect on cell growth at 10 uM incubated for 48 hrs by sulforhodamine B assay; conditions: hop-62, 48 h
HOP-92 = test: Cytotoxicity against human HOP92 cells assessed as effect on cell growth at 10 uM incubated for 48 hrs by sulforhodamine B assay; conditions: hop-92, 48 h
NCI-H226 = test: Cytotoxicity against human NCI-H226 cells assessed as effect on cell growth at 10 uM incubated for 48 hrs by sulforhodamine B assay; conditions: nci-h226, 48 h
NCI-H460 = test: Cytotoxicity against human NCI-H460 cells assessed as effect on cell growth at 10 uM incubated for 48 hrs by sulforhodamine B assay; conditions: nci-h460, 48 h
NCI-H522 = test: Cytotoxicity against human NCI-H522 cells assessed as effect on cell growth at 10 uM incubated for 48 hrs by sulforhodamine B assay; conditions: nci-h522, 48 h
COLO 205 = test: Cytotoxicity against human COLO205 cells assessed as effect on cell growth at 10 uM incubated for 48 hrs by sulforhodamine B assay; conditions: colo 205, 48 h
HCT-15 = test: Cytotoxicity against human HCT15 cells assessed as effect on cell growth at 10 uM incubated for 48 hrs by sulforhodamine B assay; conditions: hct-15, 48 h
SF-268 = test: Cytotoxicity against human SF268 cells assessed as effect on cell growth at 10 uM incubated for 48 hrs by sulforhodamine B assay; conditions: sf-268, 48 h
SF-295 = test: Cytotoxicity against human SF295 cells assessed as effect on cell growth at 10 uM incubated for 48 hrs by sulforhodamine B assay; conditions: sf-295, 48 h
SNB-75 = test: Cytotoxicity against human SNB75 cells assessed as effect on cell growth at 10 uM incubated for 48 hrs by sulforhodamine B assay; conditions: snb-75, 48 h
U-251 = test: Cytotoxicity against human U251 cells assessed as effect on cell growth at 10 uM incubated for 48 hrs by sulforhodamine B assay; conditions: u-251, 48 h
Malme-3M = test: Cytotoxicity against human MALME-3M cells assessed as effect on cell growth at 10 uM incubated for 48 hrs by sulforhodamine B assay
SK-MEL-5 = test: Cytotoxicity against human SK-MEL-5 cells assessed as effect on cell growth at 10 uM incubated for 48 hrs by sulforhodamine B assay; conditions: sk-mel-5, 48 h
IGROV-1 = test: Cytotoxicity against human IGROV1 cells assessed as effect on cell growth at 10 uM incubated for 48 hrs by sulforhodamine B assay; conditions: igrov-1, 48 h
OVCAR-4 = test: Cytotoxicity against human OVCAR4 cells assessed as effect on cell growth at 10 uM incubated for 48 hrs by sulforhodamine B assay; conditions: ovcar-4, 48 h
NCI/ADR-RES = test: Cytotoxicity against human NCI/ADR-RES cells assessed as effect on cell growth at 10 uM incubated for 48 hrs by sulforhodamine B assay
786-0 = test: Cytotoxicity against human 786-0 cells assessed as effect on cell growth at 10 uM incubated for 48 hrs by sulforhodamine B assay; conditions: 786-0, 48 h
SN12C = test: Cytotoxicity against human SN12C cells assessed as effect on cell growth at 10 uM incubated for 48 hrs by sulforhodamine B assay
Hs-578T = test: Cytotoxicity against human Hs 578T cells assessed as effect on cell growth at 10 uM incubated for 48 hrs by sulforhodamine B assay
BT-549 = test: Cytotoxicity against human BT549 cells assessed as effect on cell growth at 10 uM incubated for 48 hrs by sulforhodamine B assay; conditions: bt-549, 48 h

Measured: Activity

COC(=O)[C@@H]1C/C(=C\NCc2ccc(Cl)cc2Cl)C(=O)N1C(=O)OC
Non-Toxic: all assays above

CN(C)/C=C1\C[C@H]2C(=O)N(Cc3ccc(Cl)cc3Cl)C(N(C)C)N2C1=O (stereo not given in full)
Non-Toxic: all assays above
